From US20200256877A1, “Microbiota Sequence Variants Of Tumor-Related Antigenic Epitopes” (ENTEROME S.A., priority 2017, published 2020) come the findings set out here.

In experiment [1] the target is T1, HLA-A*0201 (Homo sapiens, UniProt P04439, D140Y/D185E/D98H/E176V/E277Q/G131W/G231S/I119V/I121R/I166T/I218V/L300P/L318F/N151K/N90K/P208A/P217A/Q86G/Q94H/R138H/R169H/T345S).
T1 construct: human tumoral cell T2 which expresses the HLA-A*0201 molecule; endogenous in cells; host or cells: T2 cells (human, TAP1/2 negative)
Put plainly: In vitro affinity of peptides to HLA-A*0201 on T2 cell line (FACS, anti-HLA-A2 labeling). The following applies: T2 cells; for Binding to HLA-A*0201 (in words): in vitro; for Mean fluorescence intensity: 16 hours. It counts as cell-based. The text has this:
A method for in vitro testing is well-known to the skilled person. For example, the skilled person may use the experimental protocol as validated for peptides presented by HLA-A*0201 in Tourdot et al., A general strategy to enhance immunogenicity of low-affinity HLA-A2.1-associated peptides: implication in the identification of cryptic tumor epitopes. Eur J Immunol. 2000 December; 30(12):3411-21. In this context, a reference peptide, such as HIV pol 589-597, may be additionally used in the test. This enables calculation of the in vitro affinity relative to the binding observed with the reference peptide, e.g. by the following equation:
Relative affinity=concentration of each peptide inducing 20% of expression of HLA-A*0201/concentration of the reference peptide inducing 20% of expression of HLA-A*0201
(where 100% is the level of HLA-A*0201 expression detected with the reference peptide, e.g. HIV pol 589-597, for example used at a 100 μM concentration).
The experimental protocol is similar to the one that was validated for peptides presented by the HLA-A*0201 (Tourdot et al., A general strategy to enhance immunogenicity of low-affinity HLA-A2.1-associated peptides: implication in the identification of cryptic tumor epitopes. Eur J Immunol. 2000 December; 30(12):3411-21). Affinity measurement of the peptides is achieved with the human tumoral cell T2 which expresses the HLA-A*0201 molecule, but which is TAP1/2 negative and incapable of presenting endogenous peptides.
T2 cells (2.10^5 cells per well) were incubated with decreasing concentrations of peptides from 100 μM to 0.1 μM in a AIMV medium supplemented with 100 ng/μl of human β2m at 37° C. for 16 hours. Cells were then washed two times and marked with the anti-HLA-A2 antibody coupled to PE (clone BB7.2, BD Pharmagen).
The analysis was performed by FACS (Guava Easy Cyte). For each peptide concentration, the geometric mean of the labeling associated with the peptide of interest was subtracted from background noise and reported as a percentage of the geometric mean of the […] labeling obtained for the reference peptide HIV pol 589-597 at a concentration of 100 μM. The relative affinity is then determined as follows:
relative affinity=concentration of each peptide inducing 20% of expression of HLA-A*0201/concentration of the reference peptide inducing 20% of expression of HLA-A*0201.
The experimental protocol, materials and methods correspond to those outlined in Example 4, with the only difference that the above mentioned antigenic peptides were used.
T2 cells (2.10^5 cells per well) were incubated with decreasing concentrations of peptides from 100 μM to 0.1 μM in a AIMV medium supplemented with 100 ng/μl of human β2 m at 37° C. for 16 hours. Cells were then washed two times and marked with the anti-HLA-A2 antibody coupled to PE (clone BB7.2, BD Pharmagen).

The test system of experiment [2] is splenocytes (IFNγ secretion). Put plainly: ELISPOT-IFNγ on splenocytes of HHD DR3 and HHD DR1 mice vaccinated with IL13RA2-BL (Example 15). It counts as in vivo, mouse. The method, then:
Mice were immunized with a specific vaccination peptide (vacc-pAg) combined to a common helper peptide (h-pAg).
The peptides were provided as follows: • vacc-pAg: IL13RA2-BL; all produced and provided at a 4 mg/ml (4 mM) concentration; • h-pAg: HHD-DR3 peptide (SEQ ID NO: 32); for immunization of β/A2/DR3 HHDDR3 mice provided at a 4 mg/ml (4 mM) concentration • h-pAg: UCP2 peptide (SEQ ID NO: 159); for immunization of β/A2/DR1 HHDDR1 mice provided at a 4 mg/ml (4 mM) concentration
(§1) The animals were immunized on day 0 (d0) with a prime injection, and on d14 with a boost injection. Each mouse was injected s.c. at tail base with 100 μL of an oil-based emulsion that contained: • 100 μg of vacc-pAg (25 μL of 4 mg/mL stock per mouse); • 150 μg of h-pAg (15 μL of 10 mg/mL stock per mouse); • 10 μL of PBS to reach a total volume of 50 μL (per mouse); • Incomplete Freund's Adjuvant (IFA) added at 1:1 (v:v) ratio (50 μL per mouse).
(§2) Seven days after the boost injection (i.e. on d21), the animals were euthanized and the spleen was harvested. Splenocytes were prepared by mechanical disruption of the organ followed by 70 μm-filtering and Ficoll density gradient purification.
The splenocytes were immediately used in an ELISPOT-IFNγ assay (Table 21). […]
(§3) Spots were counted on a Grand ImmunoSpot® S6 Ultimate UV Image Analyzer interfaced to the ImmunoSpot 5.4 software (CTL-Europe). […]

For experiment [3], the system named is splenocytes (IFNγ secretion). Put plainly: ELISPOT-IFNγ on splenocytes of β/A2/DR3 mice vaccinated with IL13RA2 peptides (Example 6). It counts as in vivo, mouse. The following applies: for Percentage of ConA-induced response (mean+/-SEM), ELISPOT-IFNγ: β/A2/DR3 mice vaccinated s.c. d0 and d14 with labelled peptide (100 μg) + HHD-DR3 helper + IFA, d21.
Source text: Briefly, 14 β/A2/DR3 mice were assigned randomly (based on mouse sex and age) to two experimental groups, each immunized with a specific vaccination peptide (vacc-pAg) combined to a common helper peptide (h-pAg) (as outlined in Table 7 below). The vacc-pAg were compared in couples (group 1 vs. group 2). Thereby, both native and optimized versions of a single peptide were compared in each wave.
as §1, §2
The splenocytes were immediately used in an ELISPOT-IFNγ assay (Table 8). Experimental conditions were repeated in quadruplets, using 2*10^5 total splenocytes per well, and were cultured in presence of vacc-pAg (10 μM), Concanavalin A (ConA, 2.5 μg/mL) or medium-only to assess for their capacity to secrete IFNγ. The commercial ELISPOT-IFNγ kit (Diaclone Kit Mujrine IFNγ ELISpot) was used following the manufacturer's instructions, and the assay was performed after about 16 h of incubation.
Spots were counted on a Grand ImmunoSpot® S6 Ultimate UV Image Analyzer interfaced to the ImmunoSpot 5.4 software (CTL-Europe). Data plotting and statistical analysis were performed with the Prism-5 software (GraphPad Software Inc.).
The data were then normalized as a number of specific spots (the average counts obtained in the ‘medium only’ condition being subtracted) per 10^6 total T cells.
The individual average values (obtained from the quadruplicates) were next used to plot the group average values (see FIG. 3A). As the functional capacity of T cells might vary from individual to individual, the data were also expressed as the percentage of the ConA response per individual (see FIG. 3B).

Experiment [4] concerns U87 cells. Put plainly: In vitro cytotoxicity of CD3+ T cells from immunized mice against U87-MG cells (Example 7). It counts as cell-based, human. The following applies: CD3+ T cells of HHD/DR3 mice immunized with labelled peptide, 72 hours co-culture with U87-MG, annexin V/DAPI. The protocol:
Briefly, […] T cells from mice immunized with IL13RA2-H or […] were used. These cells were obtained after sorting of splenocyte from immunized mice and were placed on top of U87 cells (tumor cells expressing IL13RA2).
In more detail, CD3^+ T cells were purified from splenocytes of HHD mice immunized with IL13RA2-H (WLPFGFILI, SEQ ID NO: 1) or IL13RA2-B (FLPFGFILV, SEQ ID NO: 18). To this end, B6 β2m^ko HHD/DR3 mice were injected s.c. at tail base with 100 μL of an oil-based emulsion containing vaccination peptide plus helper peptide plus CFA (complete Freund's adjuvant), at day 0 and day 14 as described in Example 6. On d21, i.e. seven days after the boost injection, the animals were euthanized and the spleen was harvested. Splenocytes were prepared by mechanical disruption of the organ. CD3+ purification was performed using the mouse total T cells isolation kit from Miltenyi biotec using the recommended procedure. Efficient purification of cells and viability was validated by cytometry using appropriate marker for viability, CD8, CD4, CD3, and CD45. […]
72 hours after co-culture of U87-MG cells and CD3+ T cells, all cells from the wells were harvested and specific U87-MG cell death was evaluated after immunostaining of CD45 negative cells with DAPI and fluorescent annexin V followed by cytometry analysis.

The subject of experiment [5] is splenocytes (IFNγ secretion). Put plainly: ELISPOT-IFNγ on splenocytes of β/A2/DR3 mice vaccinated with FOXM1-B2 (Example 12). It counts as in vivo, mouse. The protocol:
Briefly, 15 β/A2/DR3 mice were immunized with a specific vaccination peptide (vacc-pAg) combined to a common helper peptide (h-pAg) (as outlined in Table 14 below). The vacc-pAg were compared in couples (group 1 vs. group 2). Thereby, both native and optimized versions of a single peptide were compared in each wave.
The animals were immunized on day 0 (d0) with a prime injection, and on d14 with a boost injection. Each mouse was injected s.c. at tail base with 100 μL of an oil-based emulsion that contained:
100 μg of vacc-pAg (25 μL of 4 mg/mL stock per mouse);
150 μg of h-pAg (15 μL of 10 mg/mL stock per mouse);
10 μL of PBS to reach a total volume of 50 μL (per mouse);
Incomplete Freund's Adjuvant (IFA) added at 1:1 (v:v) ratio (50 μL per mouse).
Seven days after the boost injection (i.e., on d21), the animals were euthanized and the spleen was harvested. Splenocytes were prepared by mechanical disruption of the organ followed by 70 μm-filtering and Ficoll density gradient purification.
The splenocytes were immediately used in an ELISPOT-IFNγ assay (Table 15). […]
as §3

The mark [6] stands for this setting: ex vivo re-stimulation with IL13RA2-B pAg 10 μM.
Setting [7] is: ex vivo re-stimulation with IL13RA2-H pAg 10 μM.

As for “FLPFGFILPV (Sequence variant) [SEQ ID NO: 139]”, the “Binding to HLA-A*0201 (in words)” value in experiment [1] is “strong binding affinity”. The “% of maximum HIV pol 589-597 binding activity” value in experiment [1] (peptide at 6.25 μM) is 43%; in experiment [1] (peptide at 25 μM), 96%; in experiment [1] (peptide at 100 μM) it was 69%. For the same sequence, the “Response of splenocytes, ELISPOT-IFNγ (in words)” value in experiment [2] (HHD DR3 and HHD DR1 mice immunized with IL13RA2-BL + helper + IFA, stimulation with IL13RA2-BL) is reported as “strong response of splenocytes”. Further, in experiment [2] (mice immunized with IL13RA2-BL, stimulation with human peptide), the “Immune response against human peptide IL13RA2-HL (in words)” value is listed as “effective immune response”.
Turning to “FLPFGFILV (sequence variant) [SEQ ID NO: 18]”, the “Percentage of ConA-induced response (mean+/-SEM), ELISPOT-IFNγ” value is 56.3% in experiment [3] (setting [6]) and 32.3% in experiment [3] (setting [7]). For the same sequence, the “T cell responses in the ELISPOT-IFNγ assay (in words)” value in experiment [3] (β/A2/DR3 mice, vaccination, compared to IL13RA2-H-vaccinated animals) is “induced improved T cell responses”. Besides, in experiment [4], the “U87 cell lysis (in words)” value is given as “U87 cell lysis was observed”.
Regarding “LMDLSTTEV (Sequence variant) [SEQ ID NO: 75]”, the “Concentration inducing 20% of expression of the HLA-A*0201” value in experiment [1] turned out to be 6.7 µM. In experiment [1], the “Binding to HLA-A*0201 (in words)” value is “bind”. Also, the Mean fluorescence intensity in experiment [1] (peptide at 3 μM) came to 12.7; in experiment [1] (peptide at 25 μM) it was 98.2; in experiment [1] (peptide at 100 μM), 105. Also, the “T cell responses in the ELISPOT-IFNγ assay (in words)” value in experiment [5] (β/A2/DR3 mice vaccinated with FOXM1-B2 (100 μg) + HHD-DR3 + IFA, d0 and d14) is recorded as “induced strong T cell responses”. Also, the “Activation of T cells after ex vivo re-stimulation with human FOXM1-H2 (in words)” value in experiment [5] (β/A2/DR3 mice vaccinated with FOXM1-B2, re-stimulation FOXM1-H2 10 μM) is listed as “efficient activation of T cells could be observed”.
Take “WLPFGFILI (listed as Homo sapiens) [SEQ ID NO: 1, reference compound]”: the “Percentage of ConA-induced response (mean+/-SEM), ELISPOT-IFNγ” value in experiment [3] (setting [6]) is 2.0%; in experiment [3] (setting [7]), 1.1%. Also, the “U87 cell lysis (in words)” value in experiment [4] is reported as “not”.
